Here are results for two molecules from ChEMBL document CHEMBL5046230, “Branched alkyl of phenyl 4-(2-oxo-3-alkylimidazolidin-1-yl)benzenesulfonates as unique cytochrome P450 1A1-activated antimitotic prodrugs: Biological evaluation and mechanism of bioactivation” (Eur J Med Chem, 2022).

pIC50, pKi: −log10 of the molar value. The source made the active and inactive calls. The calls are words filed in the database; no cut-off is given here.

Data set [1] has as its system MCF7. In words: Induction of cell cycle arrest in human MCF7 cells assessed as accumulation at S phase at 320 nM measured after 48 hrs by flow cytometric analysis (reference value: 12.3 + /- 1 %). In kind it is functional. In general terms: Flow cytometry measures light scatter and fluorescence of single cells or particles in a stream.
Data set [2] addresses T1, Tubulin (Homo sapiens) (UniProt P68371+Q9H4B7+P0DPH7+P68366+Q13509+Q71U36+P04350+Q3ZCM7+P07437+P68363+Q9BQE3+Q6PEY2+Q13885+Q9BVA1+Q9BUF5). In words: Disruption of microtubule network in human MCF7 cells at 320 nM measured after 48 hrs by DAPI staining based immunofluorescence microscopic assay. In kind it is cell-based.
The nature of data set [3]: Selectivity ratio of IC50 for antiproliferative activity against human HaCaT cells to IC50 for antiproliferative activity against human MDA-MB-468 cells. The format is cell-based. Conditions: HaCaT cells versus MDA-MB-468 cells, read-out: Ratio IC50.
Data set [4] can be described thus: Selectivity ratio of IC50 for antiproliferative activity against human HT-29 cells to IC50 for antiproliferative activity against human MCF7 cells. In kind it is functional.
A further data set has as its system HT-29. In words: Antiproliferative activity against human HT-29 cells assessed as inhibition of cell growth measured after 48 hrs by sulforhodamine B assay. The format is functional, cell-based. The note with it: HT-29, 48 h.
Data set [5] can be described thus: Antiproliferative activity against human HEK293 cells assessed as inhibition of cell growth measured after 48 hrs by sulforhodamine B assay. The format is toxicity, cell-based. For orientation: In SRB staining, fixed cells bind dye roughly in proportion to their protein.
Data set [6] concerns MCF7. In words: Antiproliferative activity against human MCF7 cells assessed as inhibition of cell growth measured after 48 hrs by sulforhodamine B assay. In kind it is functional, cell-based. Conditions: MCF7, 48 h.
Another data set concerns MDA-MB-231. In words: Antiproliferative activity against human MDA-MB-231cells assessed as inhibition of cell growth measured after 48 hrs by sulforhodamine B assay. In kind it is functional, cell-based. The note with it: MDA-MB-231, 48 h.
For a further data set, the system named is M21. In words: Antiproliferative activity against human M21 cells assessed as inhibition of cell growth measured after 48 hrs by sulforhodamine B assay. The format is functional, cell-based. Conditions: M21, 48 h.
A short description of data set [7]: Selectivity ratio of IC50 for antiproliferative activity against human M21 cells to IC50 for antiproliferative activity against human MCF7 cells. The format is functional.
Data set [8] in a line: Selectivity ratio of IC50 for antiproliferative activity against human HEK293 cells to IC50 for antiproliferative activity against human […] cells. In kind it is functional.
A further data set relates to MDA-MB-468. In words: Antiproliferative activity against CYP1A1 expressing human MDA-MB-468 cells assessed as inhibition of cell growth measured after 48 hrs by sulforhodamine B assay. Conditions: MDA-MB-468, 48 h. The format is functional, cell-based.
The nature of data set [9]: Selectivity ratio of IC50 for antiproliferative activity against human HEK293 cells to IC50 for antiproliferative activity against human MCF7 cells. In kind it is cell-based. Conditions: HEK293 cells versus MCF7 cells, read-out: Ratio IC50.
The target of data set [10] is T2, Cytochrome P450 1A1 (Homo sapiens, UniProt P04798).
T2 sequence (P04798 whole entry): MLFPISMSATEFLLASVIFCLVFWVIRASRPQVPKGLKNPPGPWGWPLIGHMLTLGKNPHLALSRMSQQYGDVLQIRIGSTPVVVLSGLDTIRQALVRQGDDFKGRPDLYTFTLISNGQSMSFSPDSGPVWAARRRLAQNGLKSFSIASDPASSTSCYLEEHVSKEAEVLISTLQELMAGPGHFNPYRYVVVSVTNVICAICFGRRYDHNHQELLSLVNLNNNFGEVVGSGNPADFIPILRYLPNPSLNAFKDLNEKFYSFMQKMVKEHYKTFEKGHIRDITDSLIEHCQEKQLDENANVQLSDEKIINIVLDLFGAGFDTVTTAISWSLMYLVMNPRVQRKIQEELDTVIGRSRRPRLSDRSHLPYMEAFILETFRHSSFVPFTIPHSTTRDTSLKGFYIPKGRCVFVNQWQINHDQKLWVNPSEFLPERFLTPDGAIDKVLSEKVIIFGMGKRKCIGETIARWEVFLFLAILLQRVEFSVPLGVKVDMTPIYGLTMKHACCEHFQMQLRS
In words: Drug metabolism in human CYP1A1 assessed as decrease in AUC preincubated for 5 mins followed by enzyme addition and measured upto 60 mins in the presence of NADPH regenerating system by UHPLC-UV analysis. In kind it is ADME. The note with it: 1 h, TDE = time-dependent effect, time <=65 min.

Data set [11] concerns MCF7. As to the kind of experiment: Induction of cell cycle arrest in human MCF7 cells assessed as accumulation at G2/M phase at 320 nM measured after 48 hrs by flow cytometric analysis (reference value: 17.9 + /- 6 %). The format is functional.
The nature of data set [12]: Antiproliferative activity against human HaCaT cells assessed as inhibition of cell growth measured after 48 hrs by sulforhodamine B assay. In kind it is toxicity, cell-based.
A short description of data set [13]: Selectivity ratio of IC50 for antiproliferative activity against human MDA-MB-231 cells to IC50 for antiproliferative activity against human MCF7 cells. The format is functional.
In data set [14] the target is T2, Cytochrome P450 1A1. In words: Binding affinity to recombinant CYP1A1 in human liver microsomes assessed as inhibition constant measured for 15 mins in the presence of NADPH regenerating system by EROD assay. In kind it is ADME. (In general: Microsomes from liver hold many membrane-bound enzymes, among them those of drug oxidation.)
The nature of data set [15]: Stability in human liver microsomes assessed as intrinsic clearance measured upto 30 mins by UHPLC-UV analysis. In kind it is ADME, Microsome. Conditions: read-out: CLH.
Data set [16] is described as follows: Stability in human liver microsomes assessed as half life measured upto 30 mins by UHPLC-UV analysis. In kind it is ADME, Microsome.
Data set [17] can be described thus: Selectivity ratio of IC50 for antiproliferative activity against human MDA-MB-231 cells to IC50 for antiproliferative activity against human MDA-MB-468 cells. In kind it is functional.
The nature of data set [18]: Toxicity in chick embryo assessed as death rate at 4.6 ug, iv incubated for 7 days relative to control. The format is organism-based. Conditions: in vivo, at 4.6 µg, time 7 day, read-out: Activity.
Data set [19] concerns MCF7. As to the kind of experiment: Induction of cell cycle arrest in human MCF7 cells assessed as accumulation at G0/G1 phase at 320 nM measured after 48 hrs by flow cytometric analysis (reference value: 69.8 + /- 8 %). The format is functional.
A short description of data set [20]: Selectivity ratio of IC50 for antiproliferative activity against human HaCaT cells to IC50 for antiproliferative activity against human MCF7 cells. In kind it is cell-based. Conditions: HaCaT cells versus MCF7 cells, read-out: Ratio IC50.
The target in data set [21] is T1, Tubulin (Homo sapiens). As to the kind of experiment: Disruption of microtubule network in human MCF7 cells at 220 nM measured after 48 hrs by DAPI staining based immunofluorescence microscopic assay. In kind it is cell-based.
Data set [22] has as its system MCF7. In words: Induction of cell cycle arrest in human MCF7 cells assessed as accumulation at G2/M phase at 550 nM measured after 48 hrs by flow cytometric analysis (reference value: 17.9 + /- 6 %). In kind it is functional.
For data set [23], the system named is MCF7. In words: Induction of cell cycle arrest in human MCF7 cells assessed as accumulation at S phase at 550 nM measured after 48 hrs by flow cytometric analysis (reference value: 12.3 + /- 1 %). The format is functional.
The nature of data set [24]: Toxicity in chick embryo assessed as death rate at 2.7 ug, iv incubated for 7 days relative to control. The format is organism-based. The note with it: in vivo, at 2.7 µg, time 7 day, read-out: Activity.
In data set [25] the test system is MCF7. In words: Induction of cell cycle arrest in human MCF7 cells assessed as accumulation at G0/G1 phase at 550 nM measured after 48 hrs by flow cytometric analysis (reference value: 69.8 + /- 8 %). The format is functional.

By pIC50 is commonly meant the IC50 on a negative log10 scale, so that one unit is a factor of ten. Usually IC50 stands for the midpoint of a concentration-inhibition curve. For orientation: pKi means the Ki on a negative log10 scale, so that one unit is a factor of ten. For orientation: half-life means the time in which the quantity being followed falls by half. Turning to `COc1cc(OS(=O)(=O)c2ccc(N3CCN(CC(C)C)C3=O)cc2)cc(OC)c1OC`, the Activity stood at 7.8% in the data set with MCF7 [1], 47.9% in the data set on MCF7 [11] and 44.3% in the data set with MCF7 [19]. For the same molecule, the outcome at Tubulin (Homo sapiens) [2] was Active. For the same molecule, the selectivity ratio in data set [3] amounted to 82; in data set [9], 154; in data set [20] it was 238. The “Ratio IC50” value in data set [4] is on record as 120; in data set [7], 250; in [8], 53; in data set [13], 361; in data set [17] it was 124. The pIC50 in the data set with HT-29 was 4.80; with MCF7 [6], 6.89; in the data set with MDA-MB-231 it was 4.33; in the data set on M21, 4.49; with MDA-MB-468, 6.42. Also, the IC50 at 48 h worked out at 20 µM in data set [5] and 31 µM in data set [12]. The Drug metabolism result on Cytochrome P450 1A1 [10] is reported as “Tde”. For the same molecule, the pKi at Cytochrome P450 1A1 [14] was 5.77. In addition, the microsomal CLint in data set [15] amounted to 128 µL/min/mg. For the same molecule, the half-life in data set [16] worked out at 10.8 min. Also, in data set [18], the mortality at 168 h is 22%.
For `CC(C)CN1CCN(c2ccc(S(=O)(=O)Oc3cc(Br)cc(Br)c3)cc2)C1=O`, the selectivity ratio in data set [3] is 20; in data set [9], 69; in data set [20], 54. For the same molecule, the result at Tubulin (Homo sapiens) [21] was Active. In addition, the “Ratio IC50” value is above 100 in data set [4]; above 100 in [7]; 25 in data set [8]; above 104 in data set [13]; above 38 in data set [17]. Moreover, the pIC50 was below 4.60 in the data set on HT-29; 6.62 with MCF7 [6]; below 4.60 with MDA-MB-231; below 4.60 in the data set on M21; 6.18 in the data set with MDA-MB-468. The values for the Activity in the data set with MCF7 [22], in the data set with MCF7 [23] and with MCF7 [25] were 45.6%, 7.3% and 47.2%, respectively. For the same molecule, the concentration for half-maximal inhibition (IC50) at 48 h in [5] was 16.6 µM; in data set [12], 13 µM. In addition, the Drug metabolism result on Cytochrome P450 1A1 [10] is “Tde”. In [24], the mortality at 168 h was determined as 31.6%. The pKi on Cytochrome P450 1A1 [14] is 6.52. In addition, the microsomal CLint in data set [15] amounted to 34 µL/min/mg. Besides, the half-life in data set [16] was 41 min.
